Laboratory results as given in patent publication US9878021B2, “Compositions and methods for treatment of retinal degenerative diseases” (MOR RESEARCH APPLICATIONS LTD., priority 2013, dated 2018).

How the values were obtained:
Format in all cases: cell-based
RPE cells (ARPE-19) [1] = experiment: Double-staining (annexin and propidium iodide) FACS assay of RPE cells; conditions: TAK1 inhibitor 1 μM 1 hour prior to H2O2 200 μM; untreated 1.25%, H2O2 alone 31%
Protocol: (§1) Double-staining (annexin and propidium iodide (PI)) assay of RPE cells. RPE cells (ARPE-19, available from ATCC) were treated for one hour with the TAK1 inhibitor {5Z-7-oxozeaenol (1 μM)}, following 200 μM H2O2 for one hour or left untreated. The cells were then washed with fresh medium and after 24 hours were trypsinized, stained, and analyzed by FACS. The percentage of cells in each cell-cycle phase (G1/G0, S, and G2/M) was determined by its DNA content (FL2A).

RPE cells (ARPE-19) [2] = experiment: FACS cell-cycle analysis by DNA content (FL2A)
Protocol: as §1

ARPE-19 cells = experiment: Cell viability / proliferation XTT assay
Protocol: Cell viability assays ARPE-19 cells were seeded in 96-well plates (5000 cells/well) in full medium and were pretreated with the TAK1 inhibitor 5Z-7-oxozeaenol (1 μM) or left untreated for 1 hour. Their viability was then assayed by the XTT assay (cell proliferation kit cat #20-300-1000; Beit Haemek, Israel).
(§2) To determine possible toxicity of anisomycin to RPE cells, RPE cells were treated with anisomycin at different concentration for 5 minute periods. Following treatment, the medium was replaced and fresh medium was added. 72 hours post-treatment, the cells were photographed. […] Their viability was then assayed by the XTT assay.

RPE cells [3] = experiment: SA-β-gal (senescence marker) staining
[4] = tested on: p53, phospho-p38 in RPE cells; experiment: Western blot analysis of p53 and phospho-p38
Protocol: Western blot analysis was performed by standard protocols (11), p53, p38, phospho-p38, GADPH, and TAK1; antibodies were obtained from Enco, Israel.

RPE cells [5] = experiment: Conditioned media (SASP) applied on fresh RPE cells, morphology; conditions: applied 72 hours
Protocol: The most significant effect of senescence, is the acquisition of a senescence-associated secretory phenotype (SASP). SASP can convert senescent cells to proinflammatory cells that promote the secretion of chemokines and cytokines that can affect the microenvironment, including in the human retina (16, 17). To examine the role of TAK1 in this process, RPE cells were treated with TAK1 inhibitor or with H2O2, alone or in combination. After 2 weeks, the media was collected from the three separate treatments, centrifuged and the supernatants (conditioned media) were applied on fresh RPE cells for 72 hours.

RPE cells [6] = experiment: RPE cell size quantification (hypertrophy); conditions: TAK1 inhibition combined with oxidative stress, compared to stressed and normal cells
Protocol: N=40 cells for each treatment.
One of the hallmarks of RPE senescence is cellular hypertrophy. RPE cell size is approximately […]; but upon oxidative stress or genetic mutation RPE cells can undergo enlargement.

RPE cells [7] = experiment: Anisomycin toxicity to RPE cells, cellular morphology; conditions: different concentrations for 5 minute periods, 72 hours post-treatment; low levels
Protocol: as §2

Compound	number of apoptotic cells expressed as a percentage of the total number (RPE cells (ARPE-19) [1])	G2/M arrest under oxidative stress (RPE cells (ARPE-19) [2]; TAK1 inhibition prior to H2O2 treatment)	percentage of cells at the G0/G1 stage (RPE cells (ARPE-19) [2]; following TAK1 inhibition, of the total number)	proliferation rate (optical density) (ARPE-19 cells; 1 μM pretreatment 1 hour, untreated cells peak on day 4)	number of cells expressing SA-β-gal (RPE cells [3]; TAK1 inhibitor alone, relative to untreated cells)	SA-β-gal expression (RPE cells [3]; pretreatment with TAK1 inhibitor then oxidative stress (H2O2), days 13 and 16)	p38 phosphorylation ([4]; RPE cells under oxidative stress, pretreated with TAK1 inhibitor 1 μM)	p53 expression levels over a longer period ([4]; TAK1 inhibition, days, compared to untreated cells)	time at which p53 expression peaked ([4]; pretreated cells under oxidative stress, control cells peak after 60 min)	phenotype of fresh RPE cells receiving conditioned medium (RPE cells [5]; medium from cells treated with TAK1 inhibitor alone, 2 weeks)	phenotype of fresh RPE cells receiving conditioned medium (RPE cells [5]; medium from cells treated with both TAK1 inhibitor and H2O2, 2 weeks)	cell size (RPE cells [6])	rate of cell proliferation (ARPE-19 cells; oxidative stress and anisomycin)	number of SA-β-Gal positive cells (RPE cells [3]; H2O2 1 hour, 10 days growth, anisomycin 10 ng/ml 5 min, five more days, vs untreated cells exposed to oxidative stress)	toxicity to RPE cells (cellular morphology vs control) (RPE cells [7])
COc1cc(O)c2c(c1)/C=C/C[C@H](O)[C@H](O)C(=O)/C=C\C[C@H](C)OC2=O [5Z-7-oxozeaenol]	24%	reduced	89%	slower proliferation rate that began to decrease after 3 days	dramatically increased	strongly increased	inhibition of p38 phosphorylation	reduced p53 expression levels slightly more than the untreated cells	10 min	hypertrophic phenotype similar to that of senescent cells	aberrant morphology similar to that of atrophic RPE cells	further increases cell size			
COc1ccc(C[C@H]2NC[C@H](O)[C@H]2OC(C)=O)cc1 [anisomycin, (2R,3S,4S)-4-hydroxy-2-(4-methoxybenzyl)-pyrrolidin-3-yl acetate]													did not display reduction	reduces the number of SA-β-Gal positive cells	not toxic
